From patent US6004905A, “Hyperabas: biologically active abscisic acid analogs with unsaturated carbon substituents at the 8'-methyl or 9'-methyl carbon atoms” (National Research Council of Canada, priority 1998, dated 1999)
Read-outs that look alike come from different tables or passages of the source.

Experiments:
[1] = test system: Interior spruce seedlings; test: Drought avoidance of transplanted spruce seedlings; format: in vivo
Excerpt: (§1) The ABA analog was applied as a spray-root drench that stimulated application through a nursery irrigation system. Seedlings with intact root-soil plugs were placed in a container, and ABA analog treatments were applied as a top drench. Treated seedlings were kept in the large container where the treatment flow-through was allowed to be re-absorbed into the plugs over a two day period. This ensured that all of the treatment was taken up by the root plugs and was available to seedlings. During testing, root-soil plugs were kept intact, enabling ABA analog treatments to be retained in close contact with the root system.
(§2) For this testing program, ABA analog #365 was applied at 10^-4, […] and 10^-3 M concentrations. Analogs were dissolved in an acetone solution (@ 1%) to prepare ABA analog treatments. In addition, there was a control treatment of acetone only @ 1%. The analog treatments were applied one time, two days before the start of experimental measurements. Each seedling received approximately 20 ml of either an analog or a control solution.
Just after treatment application, seedlings (n=75) were put through a rapid eight to fifteen day drought. Seedlings were watered to saturation during ABA analog application. After 24 to 48 hours, when all of the ABA analog solution was absorbed by the seedling root plug, root systems were enclosed in a plastic bag and placed in a darkened chamber with the shoot systems exposed to the above described controlled environment conditions. Seedlings were allowed to dry out through shoot transpiration. Gas exchange parameters (Pn, and gwv) of seedlings (n=8) from each treatment were measured during each daylight period. At each gas exchange measurement time, seedlings were measured with a pressure chamber to determine .psi., Changes in gas exchange parameters and seedling water balance were determined over time.
A study was conducted to determine how the ABA analog influenced seedling response to potentially lethal soil drought. It was hypothesized that ABA analogs limit water use and delay deleterious physiological conditions in seedlings under limited soil water availability. The ABA analog would allow seedlings to avoid a potentially lethal drought stress to survive and have normal morphological development.
Just after treatment application, seedlings (n=75) were put through a rapid drought. Over the drought, seedlings were measured with a pressure chamber to determine .psi..

[2] = test system: Interior spruce seedlings; test: Growth of transplanted spruce seedlings; format: in vivo
[3] = test system: Interior spruce seedlings; test: Gas exchange of spruce seedlings; format: in vivo; settings: optimum conditions; longer periods at higher concentrations (FIGS. 19-21)
Excerpt: as §1
as §2, with “Each seedling received approximately 20 ml of either an analog or a control solution.” left out
Gas exchange parameters (net photosynthesis (Pn), needle conductance (gwv), water use efficiency-not reported) were determined on the seedlings treated with the ABA analog at each concentration (n=8). […] Gas exchange parameters were assessed 9 times across the first 20 days of the measurement period. Thereafter, gas exchange parameters were periodically assessed at 5 times from day 20 until the 52nd day of the measurement period.

[4] = test system: suspension-cultured corn cells (var. Black Mexican Sweet); test: Growth inhibition of suspension-cultured corn cells; format: cell-based, corn (maize); settings: four days
excised wheat embryos = test: Wheat embryo germination inhibition; format: in vivo, Triticum aestivum L. cv. Clark's Cream; settings: in vivo
Description: Grains of soft white wheat (Triticum aestivum L. cv. Clark's Cream) were used. For bioassay, embryos with some adhering endosperm and pericarp attached were cut from the grains with a razor blade. Analogs were prepared by dissolving into a minimal amount of DMSO to prepare a 0.1 M solution, and then diluted with […], pH 5.8, to 0.01, 0.1, 1, 10 and 100 μM. For each analog concentration six replicate germination assays were conducted on 10 embryos each at 30° C. Embryos were incubated in Petri dishes (100×15 mm) containing 6 ml solution.

[5] = test system: ABA-responsive cor6.6 promoter; test: ABA-inducible gene expression (GUS activity) in transgenic tobacco seedlings containing Pcor6.6-GUS; format: in vivo, transgenic tobacco (promoter from Arabidopsis thaliana); settings: 24 hours (FIG. 15)
Description: The results shown are an average of duplicate assays on samples containing 34 seedlings.
The results shown are an average of duplicate samples containing cotyledons from 34 seedlings.

α-amylase activity = settings: Nakano et al. 1995; cited from earlier work
lettuce seed = settings: Nakano et al. 1995; cited from earlier work
[6] = test system: stomatal opening of spiderwort; settings: Nakano et al. 1995, cited from earlier work
rice seedling leaves = settings: Nakano et al. 1995; cited from earlier work
[7] = test system: suspension-cultured corn cells; settings: Balsevich et al 1994; cited from earlier work
[8] = background; cited from earlier work

Compound: Methyl 8'-methylene ABA [PBI-365]
- drought avoidance capability, dependence on treatment concentration ([1]; FIG. 17): improved with higher treatment concentrations
- needle conductance ([1]; drought conditions): reduction in needle conductance
- seedling water balance ([1]; drought conditions): improved seedling water balance under drought conditions
- drought avoidance capability ([1]; range of drought conditions): excellent drought avoidance capability
- effect on seedling growth ([2]; moderate and severe drought conditions): no definitive effect on seedling growth
- effect on seedling growth ([2]; near lethal drought conditions): positive influence on growth
- long term effects on growth ([2]; optimum soil moisture conditions (FIG. 18)): no long term negative effects on growth
- duration of reduction in gas exchange capability [3]: one to three

Compound: CC[C@@]1(C)CC(=O)C=C(C)[C@]1(O)/C=C/C(C)=C\C(=O)O [(+)-8'-methyl ABA]
- growth inhibition activity (comparison in words) [4]: comparable to that produced by (+)-ABA
- germination inhibitory activity, wheat embryos (in words) (excised wheat embryos): more active than (+)-ABA
- fold weaker than ABA as inducer of GUS [5]: about 3 fold
- blocking of GA3 stimulated α-amylase activity (α-amylase activity): nearly as active as (+)-ABA
- lettuce seed germination inhibition (lettuce seed): more active than (+)-ABA
- activity in stomatal opening [6]: more active than (+)-ABA
- activity in stomatal opening ([6]; listed as 8'-methyl analog): only slightly weaker than ABA
- activity in elongation of rice seedling leaves (rice seedling leaves): more active than (+)-ABA

Compound: CC(=C/C(=O)O)/C=C/[C@]1(O)[C@@]2(C)CO[C@]1(C)CC(=O)C2 [Phaseic acid, phaseic acid]
- shift (elevation) in pH of the medium (literature) [7]: not produced by PA
- activity in most assays [8]: little or no activity in most assays
